Here are results for eleven compounds from PubChem BioAssay (NCI).

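Exposure lasted 48 hours, with cells grown in 96-well plates and compounds tested at five concentrations. GI50 = concentration required for 50% inhibition of growth. Definition used: TGI = concentration required for complete inhibition of growth.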 Where only a bound is given, the exact number is not on record here.

Some test systems named below: CAKI-1 renal; IGROV1 ovarian; K-562 leukemia; M14 melanoma; NCI-H23 lung; SF-295 CNS; SN12C renal; SNB-19 CNS; TK-10 renal; CCRF-CEM leukemia.
Common to all, as to assay: growth of human tumour cells (NCI), 48 h

For `O=C(Nc1cc(C(F)(F)F)ccc1F)Nc1n[nH]c2ccccc12`, the GI50 in the test with CAKI-1 renal was greater than 100 µM; in the test with IGROV1 ovarian it was 0.758 µM; with K-562 leukemia, greater than 100 µM; in the test with M14 melanoma, greater than 100 µM; in the test with NCI-H23 lung, greater than 100 µM; in the test with SF-295 CNS, greater than 100 µM. Also, the GI50 in the test on SN12C renal, in the test on SNB-19 CNS and in the test on TK-10 renal was greater than 100 µM throughout. For the same compound, the TGI in the test with CAKI-1 renal, in the test on IGROV1 ovarian, in the test with K-562 leukemia, in the test with M14 melanoma, in the test with NCI-H23 lung and in the test on SF-295 CNS was greater than 100 µM throughout. Also, the TGI in the test on SN12C renal, in the test with SNB-19 CNS and with TK-10 renal was greater than 100 µM in each case.
In the case of `COC(=O)C1=Nc2c(C)nn(-c3ccccc3)c2N=C(c2ccc(C)cc2)C1`, the TGI in the test with CAKI-1 renal, in the test with IGROV1 ovarian, with K-562 leukemia, with M14 melanoma, in the test on NCI-H23 lung and with SF-295 CNS was greater than 10 µM each time. Also, the TGI in the test with SN12C renal, with SNB-19 CNS and with TK-10 renal was greater than 10 µM each time.
Turning to `C(=C\c1csnn1)/c1cccnc1`, the TGI in the test on K-562 leukemia, in the test on M14 melanoma, in the test on NCI-H23 lung, in the test with SF-295 CNS, in the test on SN12C renal and with SNB-19 CNS was greater than 100 µM each time. In the test on TK-10 renal, this compound returned a TGI greater than 100 µM.
Take `COc1ccc2[nH]cc(-c3nc(-c4cn(C)c5ccncc45)cs3)c2c1`: the GI50 in the test with CAKI-1 renal is 1.84 µM; in the test with CCRF-CEM leukemia, 2.33 µM; in the test on IGROV1 ovarian, 1.93 µM; with M14 melanoma it was 1.75 µM; in the test on NCI-H23 lung, 2.12 µM; in the test on SF-295 CNS, 12.3 µM. Besides, the GI50 with SN12C renal was 1.64 µM; in the test on SNB-19 CNS, 1.79 µM; in the test with TK-10 renal, 1.48 µM. In addition, the TGI in the test with CAKI-1 renal was determined as 3.35 µM; with CCRF-CEM leukemia, 6.25 µM; with IGROV1 ovarian, 3.54 µM; in the test with M14 melanoma it was 3.24 µM; in the test on NCI-H23 lung it was 4.12 µM; in the test with SF-295 CNS, 25.7 µM. Also, the results for the TGI in the test on SN12C renal, with SNB-19 CNS and in the test with TK-10 renal were 3.08 µM, 3.57 µM and 3.12 µM, respectively.
On to `ClCCN(CCCl)c1ccc(-n2cnc3c(Cl)ncnc32)cc1`, for which the GI50 in the test on CAKI-1 renal was 0.697 µM; with CCRF-CEM leukemia, 3.05 µM; in the test with K-562 leukemia, 3.24 µM; with M14 melanoma, 1.96 µM; in the test on NCI-H23 lung, 2.02 µM; with SN12C renal, 3.17 µM. Further, the GI50 in the test with SNB-19 CNS is 5.4 µM; with TK-10 renal, 13 µM. Also, the TGI in the test on CAKI-1 renal is 2.05 µM; in the test with CCRF-CEM leukemia it was greater than 100 µM; in the test with K-562 leukemia, 9.92 µM; with M14 melanoma it was 3.88 µM; with NCI-H23 lung, 3.79 µM; in the test on SN12C renal it was 10.2 µM. In addition, the TGI in the test with SNB-19 CNS worked out at 17.4 µM; in the test on TK-10 renal, 81.9 µM.
`COc1ccc2c(c1)CC[C@@H]1[C@@H]2CC[C@@]2(C)[C@H]1CC1(CCCCC1)[C@@H]2O`: the GI50 in the test with CAKI-1 renal is 18.2 µM; with IGROV1 ovarian it was 30.9 µM; with M14 melanoma it was 13.8 µM; in the test on NCI-H23 lung, 18.6 µM; with SF-295 CNS, 9.05 µM; with SN12C renal it was 20.4 µM. Also, the GI50 with SNB-19 CNS was 18 µM; in the test on TK-10 renal, 12.2 µM. In addition, the TGI with CAKI-1 renal is 33.9 µM; with IGROV1 ovarian, 80.7 µM; in the test with M14 melanoma it was 31.4 µM; in the test on NCI-H23 lung it was 35.9 µM; in the test on SF-295 CNS, 23.1 µM; with SN12C renal, 39 µM. The values for the TGI with SNB-19 CNS and in the test with TK-10 renal were 40.7 µM and 31.8 µM, respectively.
In the case of `Nc1ccc(Nc2nc(F)nc(-c3c4ccccc4c4n3CCS4)n2)cc1`, the TGI in the test on CAKI-1 renal turned out to be 23.6 µM; in the test on CCRF-CEM leukemia it was 62.2 µM; in the test on IGROV1 ovarian it was 29.9 µM; in the test on M14 melanoma, 31.6 µM; in the test with NCI-H23 lung it was 32.7 µM; in the test on SF-295 CNS, 33.7 µM. Besides, the TGI in the test with SN12C renal stood at 33.4 µM; in the test with SNB-19 CNS, 30.3 µM; in the test on TK-10 renal, 34.2 µM.
Take `CCc1c2c(nc3cc4c(cc13)OCO4)-c1cc3c(c(=O)n1C2)COC(=O)[C@@]3(CC)OC(=O)CN`: the GI50 with CAKI-1 renal, in the test on CCRF-CEM leukemia, in the test on K-562 leukemia, in the test with M14 melanoma, in the test with NCI-H23 lung and with SF-295 CNS was less than 0.01 µM throughout. The GI50 is less than 0.01 µM with SN12C renal, less than 0.01 µM with SNB-19 CNS and 0.178 µM in the test on TK-10 renal. For the same compound, the TGI was less than 0.01 µM in the test with CCRF-CEM leukemia; 5.65 µM in the test on K-562 leukemia; less than 0.0247 µM in the test on M14 melanoma; less than 0.0158 µM in the test on NCI-H23 lung; less than 0.0166 µM in the test on SF-295 CNS; 0.034 µM in the test on SN12C renal. This compound returned a TGI with TK-10 renal of 20 µM.
For the compound `O=C(CCC(=O)Nc1ccc(Cl)cc1)CC(=O)c1ccc(F)cc1`, the TGI with CAKI-1 renal, in the test on IGROV1 ovarian, in the test on K-562 leukemia, with M14 melanoma, in the test with NCI-H23 lung and in the test on SF-295 CNS was greater than 100 µM each time. Moreover, the TGI in the test on SN12C renal, in the test with SNB-19 CNS and with TK-10 renal was greater than 100 µM throughout.
As for `N=C(N)SCCc1cn2ccccc2n1`, the TGI in the test on CAKI-1 renal, with CCRF-CEM leukemia, in the test with K-562 leukemia, in the test with M14 melanoma, in the test on NCI-H23 lung and in the test on SF-295 CNS was greater than 100 µM in each case. Moreover, the TGI with SN12C renal, in the test on SNB-19 CNS and with TK-10 renal was greater than 100 µM each time.
Turning to `COc1cnc2c(c1)C(=O)c1c-2n(CCCn2ccnc2)c(=O)c2cc(Cl)ccc12`, the GI50 was 0.0255 µM in the test with CAKI-1 renal; less than 0.01 µM in the test with CCRF-CEM leukemia; 0.0347 µM in the test with K-562 leukemia; 0.0282 µM in the test on M14 melanoma; 0.0382 µM in the test with NCI-H23 lung; 0.0251 µM in the test with SF-295 CNS. In addition, the GI50 in the test on SNB-19 CNS is 0.0321 µM; in the test on TK-10 renal, 0.744 µM. Besides, the TGI in the test with CAKI-1 renal was greater than 100 µM; in the test on CCRF-CEM leukemia, greater than 100 µM; in the test with K-562 leukemia it was greater than 100 µM; in the test on M14 melanoma, 0.162 µM; with NCI-H23 lung, 0.505 µM; with SF-295 CNS it was 0.0794 µM. The TGI in the test with SNB-19 CNS and with TK-10 renal was greater than 100 µM throughout.
